Experimental data as given in patent US6921531B2, “Administering bifunctional molecules containing a drug moiety and presenter protein ligand for therapy” (The Board of Trustees of the Leland Stanford Junior …, priority 1998, dated 2005).
pKd: −log10 of the molar value. Entries after “also recorded” stand apart in the source; their conditions may differ. Read-outs that look alike come from different tables or passages of the source.

Key:
Fyn SH2 domain [1] = target: T1, Fyn SH2 domain (Homo sapiens, UniProt P06241); test: Binding constants (Kd) for Fyn SH2 domain, isothermal titration calorimetry; settings: ITC
T1 construct: The Fyn, Lck and PLC SH2 domains were expressed in bacteria as GST fusion proteins; GST (cleaved yes); made in house; host or cells: bacteria
Description: SLFpYEEI and FKpYEEI are bifunctional molecules that can bind FKBP12 and FKBP52 as well as the Fyn SH2 domain (FIG. 2). The binding constants (Kd values) of the bifunctional molecules for the three proteins were measured using isothermal titration calorimetry (ITC) (Table 1).
FIG. 6 is a graph of the competition binding curves for the Fyn SH2 domain and FKpYEEI as well as the Fyn SH2 domain and the peptide pYEEI in the absence and the presence of FKBP52. Fyn SH2 domain was incubated with peptide beads and increasing concentrations of FKpYEEI in the absence or presence of FKBP52. Specifically, in this assay, in 100 L binding reactions, radioactively labeled Fyn SH2 domain (200 nM) was incubated with 7.5 L of a 1:1 pYEEI bead slurry. Increasing concentrations of FKpYEEI or pYEEI (0.1-20.0 M) were added in the presence or absence of FKBP52 (4.5 M). The binding reactions were rotated at room temperature for 2 hours, centrifuged and analysed as described above. Half maximal binding (IC50) is observed at 750 riM FKpYEEI in the absence of FKBP52. […] Using ITC, the binding constant (Kd) for Fyn SH2 domain binding to the FKpYEEI-FKBP52 complex was determined.
FIG. 13 is a graph of the competition binding curves for the Fyn SH2 domain and SLFpYEEI in the absence and the presence of FKBP12. Fyn SH2 domain was incubated with increasing concentrations of SLFpYEEI in the absence or presence of FKBP12. In this assay, in 100 L binding reactions, radioactively labeled Fyn SH2 domain (200 nM) was incubated with 7.5 L of a 1:1 pYEEI bead slurry. Increasing concentrations of SLFpYEEI (0.1-20.0 M) were added in the presence or absence of FKBP12 (20 M). The binding reactions were rotated at room temperature for 2 hours, centrifuged and analysed as described above. […] This effect was confirmed by ITC.

Fyn SH2 domain [2] = target: T1, Fyn SH2 domain; test: Competition binding assay of radioactive Fyn SH2 domain to pYEEI beads; settings: for Effect of FKBP12 on affinity for the Fyn SH2 domain: 1.0 µM ligand plus FKBP12 (0.25-4.0 µM or 2.0 µM)
Description: The pYEEI peptide was coupled to Affi-Gel 10 beads (Biorad) via its amino-group. The Fyn, Lck and PLC SH2 domains were expressed in bacteria as GST fusion proteins. The linker between the GST protein and the SH2 domain contained a thrombin cleavage site and a protein kinase A (PKA) phosphorylation site. The fusion protein on glutathione beads was radioactively labeled at the PKA phosphorylation site using PKA (Sigma). After extensive washing of the beads, the radioactive SH2 domain was released by cleavage with thrombin (Sigma). In a typical binding assay, 7.5 L of a 1:1 peptide bead slurry were incubated with the radioactive SH2 domain (200 nM) for 2 hours in 100 L of binding buffer (20 mM Tris pH7.2; 150 mM NaCl). In order to separate the radioactive protein bound to the beads, the binding reaction was transfered into a PCR tube (USA Scientific Plastic), whose bottom had been punctured with a 26gauge needle. The PCR tube was placed in a 0.5 mL Eppendorf tube which in turn was placed in a regular 1.5 mL Eppendorf tube. The tubes were spun for 1 second at maximal speed in an Eppendorf centrifuge resulting in the separation of the beads remaining in the PCR tube and the supernatant, which was collected in the 0.5 ml Eppendorf tube. The beads were resuspended in […] PBS and the radioactivity was counted in a liquid scintillation counter after addition of 3 ml scintillation fluid. The radioactivity remaining in the 100 L supernatant was counted in the same way. It was determined that under the conditions described 65% Fyn, 25% PLC and 15%Lck SH2 domain were bound to the beads. By increasing the amount of beads, up to 80% Fyn, 40% PLC and 25% Lck could be bound. These amounts reflect the active fraction of SH2 domains in the different protein preparations.
In order to determine the relative affinity of the SH2 domains for FKpYEEI or SLFpYEEI alone and FKpYEEI or SLFpYEEI bound to FKBP12 and FKBP52, the following competition assay was used. Radioactive SH2 domains were incubated with pYEEI peptide beads and FKpYEEI or SLFpYEEI in the presence or absence of the respective FKBP proteins. FKpYEEI and FKpYEEI/FKBP as well as SLFpYEEI and SLFpYEEI/FKBP compete for binding of the SH2 domains with the peptide beads. The higher the affinity of the FKpYEEI or SLFpYEEI ligand in the supernatant, the less SH2 domain is bound to the peptide beads (FIG. 3).
Using the competition binding assay described above, FKpYEEI was added to peptide beads and the Fyn SH2 domain in the presence of increasing concentrations of FKBP52 (FIG. 4). In this assay, in 100 L binding reactions, radioactively labeled Fyn SH2 domain (200 nM) was incubated with 7.5 L of a 1:1 pYEEI bead slurry. No FKpYEEI, 1.0 M FKpYEEI or 1.0 M FKpYEEI plus increasing concentrations of FKBP52 (0.25-4.0 M) were added. The binding reactions were rotated at room temperature for 2 hours. The supernatant was separated from the beads by spinning the binding reactions in punctured PCR tubes for 1 sec in an Eppendorf centrifuge at maximal speed. The beads were resuspended in 100 1 PBS and the radioactivity bound to the beads was counted in a liquid scintillation vial for 30 sec. The radioactivity bound to the beads in the presence of only the Fyn SH2 domain was plotted as 100% of maximal Fyn SH2 domain binding to pYEEI beads. The radioactivity bound in the presence of FKpYEEI and FKBP52 was calculated as the percentage of maximal Fyn SH2 domain binding. Every binding reaction was done in triplicate. The data points reflect the average of the three binding reactions. The error bars indicate the standard error.
In this assay, in 100 L binding reactions, radioactively labeled Fyn SH2 domain (200 nM) was incubated with 7.5 L of a 1:1 pYEEI bead slurry. […] The binding reactions were rotated at room temperature for 2 hours, centrifuged and analysed as described above. […]

[3] = ligand alone, no presenter protein, read-out: Binding constant (Kd) for Fyn SH2 domain, free ligand

T1 sequence (P06241 149-246 limits assumed): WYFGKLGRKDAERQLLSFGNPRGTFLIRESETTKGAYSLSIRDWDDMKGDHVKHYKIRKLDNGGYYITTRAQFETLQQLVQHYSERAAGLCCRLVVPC

SMILES | pKd (Fyn SH2 domain [1]; in complex with FKBP52, read-out: Kd for Fyn SH2 domain binding to the FKpYEEI-FKBP52 complex) | pKd (Fyn SH2 domain [1]; [3]) | Effect of FKBP12 on affinity for the Fyn SH2 domain (Fyn SH2 domain [2]) | Effect of FKBP52 on affinity for the Fyn SH2 domain (Fyn SH2 domain [2]; 1.0 M ligand plus FKBP52 0.25-4.0 M) | Enhancement of affinity in the context of FKBP52 in respect to pYEEI (Fyn SH2 domain [2]; IC50 of FKpYEEI plus FKBP52 vs IC50 of pYEEI) [fold] | Factor of affinity enhancement for the Fyn SH2 domain in complex with FKBP52 (Fyn SH2 domain [2]; IC50 with FKBP52 vs without) | Factor of affinity reduction for the Fyn SH2 domain in complex with FKBP12 (Fyn SH2 domain [2]; IC50 with FKBP12 vs without)
CC[C@H](C)[C@H](NC(=O)[C@H](CCC(=O)O)NC(=O)[C@H](CCC(=O)O)NC(=O)[C@H](Cc1ccc(OP(=O)(O)O)cc1)NC(=O)OCC[C@@H]1/C=C(\C)C[C@H](C)C[C@H](OC)[C@H]2O[C@@](O)(C(=O)C(=O)N3CCCC[C@H]3C(=O)O[C@H](/C(C)=C/[C@@H]3CC[C@@H](O)[C@H](OC)C3)[C@H](C)[C@@H](O)CC1=O)[C@H](C)C[C@@H]2OC)C(=O)O [FKpYEEI] | 6.89 | 6.28 | does not enhance the binding affinity for the Fyn SH2 domain; also recorded: does not affect the affinity | higher affinity for the Fyn SH2 domain | 4.4 | three | –
CC[C@H](C)[C@H](NC(=O)[C@H](CCC(=O)O)NC(=O)[C@H](CCC(=O)O)NC(=O)[C@H](Cc1ccc(OP(=O)(O)O)cc1)NC(=O)COc1cccc([C@@H](CCc2ccc(OC)c(OC)c2)OC(=O)[C@@H]2CCCCN2C(=O)C(=O)C(C)(C)CC)c1)C(=O)O [SLFpYEEI] | – | 6.74 | reduced affinity for the Fyn SH2 domain; also recorded: reduced binding | – | – | – | six
